How the values were obtained:
[1] = target: Acetylcholinesterase (Electrophorus electricus, UniProt O42275)
Description: Inhibition of electric eel AChE by microplate reader based analysis

[2] = target: Carbonic anhydrase 2 (Homo sapiens) (UniProt P00918)
Description: Binding affinity to human carbonic anhydrase 2 assessed as activation constant by phenol red dye based stopped-flow method

[3] = target: Cholinesterase (Equus caballus, UniProt P81908)
Description: Inhibition of equine serum BuChE by microplate reader based analysis

[4] = target: Carbonic anhydrase 1 (Homo sapiens) (UniProt P00915)
Description: Binding affinity to human carbonic anhydrase 1 assessed as activation constant by phenol red dye based stopped-flow method

[5] = target: Carbonic anhydrase 4 (Homo sapiens) (UniProt P22748)
Description: Binding affinity to human carbonic anhydrase 4 assessed as activation constant by phenol red dye based stopped-flow method

[6] = target: Carbonic anhydrase 7 (Homo sapiens) (UniProt P43166)
Description: Binding affinity to human carbonic anhydrase 7 assessed as activation constant by phenol red dye based stopped-flow method

[7] = target: Carbonic anhydrase 5B, mitochondrial (Homo sapiens) (UniProt Q9Y2D0)
Chain of Carbonic anhydrase 5B, mitochondrial (Homo sapiens) (Q9Y2D0 whole entry): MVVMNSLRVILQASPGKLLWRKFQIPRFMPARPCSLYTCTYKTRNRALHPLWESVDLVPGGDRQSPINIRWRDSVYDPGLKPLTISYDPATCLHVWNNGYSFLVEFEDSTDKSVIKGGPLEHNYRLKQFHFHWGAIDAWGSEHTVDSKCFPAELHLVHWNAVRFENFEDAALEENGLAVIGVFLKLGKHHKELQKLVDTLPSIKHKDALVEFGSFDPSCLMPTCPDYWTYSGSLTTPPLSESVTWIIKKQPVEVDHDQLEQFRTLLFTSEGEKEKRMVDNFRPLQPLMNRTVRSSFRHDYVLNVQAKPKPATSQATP
Description: Binding affinity to human carbonic anhydrase 5B assessed as activation constant by phenol red dye based stopped-flow method

Chain of Cholinesterase (P81908 whole entry): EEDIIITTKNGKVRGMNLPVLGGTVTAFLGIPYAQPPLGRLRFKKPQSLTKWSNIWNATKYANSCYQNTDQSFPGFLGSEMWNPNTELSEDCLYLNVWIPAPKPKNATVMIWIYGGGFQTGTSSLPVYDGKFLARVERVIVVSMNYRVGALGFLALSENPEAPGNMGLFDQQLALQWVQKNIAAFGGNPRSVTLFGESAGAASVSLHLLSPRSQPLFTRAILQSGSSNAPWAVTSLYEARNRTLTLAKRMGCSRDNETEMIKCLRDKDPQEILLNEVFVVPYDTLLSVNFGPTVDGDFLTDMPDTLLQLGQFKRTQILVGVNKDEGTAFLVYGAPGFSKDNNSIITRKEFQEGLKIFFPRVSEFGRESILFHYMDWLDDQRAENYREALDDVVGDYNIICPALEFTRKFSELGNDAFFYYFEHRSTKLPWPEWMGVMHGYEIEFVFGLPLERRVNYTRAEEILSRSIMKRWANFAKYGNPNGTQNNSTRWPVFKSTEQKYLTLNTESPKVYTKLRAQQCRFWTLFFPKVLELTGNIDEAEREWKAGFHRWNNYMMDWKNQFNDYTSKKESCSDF
Chain of Carbonic anhydrase 1 (Homo sapiens) (P00915 2-261 limits assumed): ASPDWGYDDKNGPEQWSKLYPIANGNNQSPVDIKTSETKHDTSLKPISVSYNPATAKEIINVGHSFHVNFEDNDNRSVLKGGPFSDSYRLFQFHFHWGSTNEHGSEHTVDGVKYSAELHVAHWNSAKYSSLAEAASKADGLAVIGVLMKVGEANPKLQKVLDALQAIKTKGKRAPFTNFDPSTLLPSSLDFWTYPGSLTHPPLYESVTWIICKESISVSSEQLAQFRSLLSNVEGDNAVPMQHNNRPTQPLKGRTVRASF
Chain of Carbonic anhydrase 7 (Homo sapiens) (P43166 whole entry): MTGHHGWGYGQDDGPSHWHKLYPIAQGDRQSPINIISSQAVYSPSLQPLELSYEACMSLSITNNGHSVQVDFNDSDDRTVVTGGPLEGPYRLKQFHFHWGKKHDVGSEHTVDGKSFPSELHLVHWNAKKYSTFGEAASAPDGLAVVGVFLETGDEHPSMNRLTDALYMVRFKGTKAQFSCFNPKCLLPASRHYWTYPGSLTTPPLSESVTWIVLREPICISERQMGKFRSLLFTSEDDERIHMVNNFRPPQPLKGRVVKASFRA
Chain of Carbonic anhydrase 4 (Homo sapiens) (P22748 whole entry): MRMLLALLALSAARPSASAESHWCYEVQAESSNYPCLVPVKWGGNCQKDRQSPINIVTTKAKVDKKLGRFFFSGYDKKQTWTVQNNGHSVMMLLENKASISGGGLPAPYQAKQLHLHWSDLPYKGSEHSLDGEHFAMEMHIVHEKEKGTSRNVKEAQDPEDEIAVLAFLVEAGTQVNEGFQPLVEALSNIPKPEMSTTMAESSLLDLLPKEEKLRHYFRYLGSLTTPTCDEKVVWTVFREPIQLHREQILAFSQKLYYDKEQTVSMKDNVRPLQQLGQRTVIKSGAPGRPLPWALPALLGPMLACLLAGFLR
Chain of Acetylcholinesterase (O42275 whole entry): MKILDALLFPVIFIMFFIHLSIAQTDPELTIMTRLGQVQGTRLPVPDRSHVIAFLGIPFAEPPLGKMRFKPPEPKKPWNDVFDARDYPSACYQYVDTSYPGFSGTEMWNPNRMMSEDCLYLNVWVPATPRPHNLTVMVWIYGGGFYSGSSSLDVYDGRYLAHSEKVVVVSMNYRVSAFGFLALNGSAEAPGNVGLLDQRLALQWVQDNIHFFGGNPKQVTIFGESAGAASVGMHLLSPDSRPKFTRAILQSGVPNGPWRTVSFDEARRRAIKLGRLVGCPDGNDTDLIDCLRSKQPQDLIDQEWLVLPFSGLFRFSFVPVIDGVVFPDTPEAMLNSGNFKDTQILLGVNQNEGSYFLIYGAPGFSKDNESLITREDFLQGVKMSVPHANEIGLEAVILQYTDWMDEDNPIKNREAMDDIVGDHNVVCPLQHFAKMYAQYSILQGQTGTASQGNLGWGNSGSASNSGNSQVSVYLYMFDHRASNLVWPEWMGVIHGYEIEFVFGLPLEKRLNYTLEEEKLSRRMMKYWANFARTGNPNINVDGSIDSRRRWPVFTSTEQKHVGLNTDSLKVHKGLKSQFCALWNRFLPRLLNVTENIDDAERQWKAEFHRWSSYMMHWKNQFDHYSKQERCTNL

SMILES	IC50 [1] [nM]	KA ([2]; filed as activator) [nM]	IC50 [3] [nM]	KA ([4]; filed as activator) [nM]	KA ([5]; filed as activator) [µM]	KA ([6]; filed as activator) [nM]	KA ([7]; filed as activator) [nM]	KA [2] [nM]	KA [4] [nM]	KA [5] [µM]	KA [6] [nM]	KA [7] [nM]
c1ccc2c(NCCCCCCNCCc3c[nH]cn3)c3c(nc2c1)CCCC3	2.2	102	2	236	2.28	386	500	–	–	–	–	–
N[C@@H](CCCCNC(=O)OCc1ccccc1)C(=O)NCCCCNc1c2c(nc3ccccc13)CCCC2	250	1900	2.5	3270	9.73	975	1400	–	–	–	–	–
COC(=O)[C@@H](N)Cc1ccc(OCCCCCCNc2c3c(nc4ccccc24)CCCC3)cc1	26.4	295	2.7	702	8.25	185	6160	–	–	–	–	–
N[C@@H](Cc1ccccc1)C(=O)NCCCNc1c2c(nc3ccccc13)CCCC2	239	726	0.22	893	5.85	491	971	–	–	–	–	–
COC(=O)[C@H](Cc1c[nH]c2ccccc12)NCCCCCNc1c2c(nc3ccccc13)CCCC2	37.6	840	4	606	2.93	482	471	–	–	–	–	–
N[C@@H](Cc1c[nH]c2ccccc12)C(=O)NCCCCCCNc1c2c(nc3ccccc13)CCCC2	2.4	539	1.2	876	0.541	79.8	353	–	–	–	–	–
CC(C)(C)OC(=O)N[C@@H](Cc1ccccc1)C(=O)NCCCCCCNc1c2c(nc3ccccc13)CCCC2	9.9	–	0.091	–	–	–	–	> 50000	> 50000	> 50	> 50000	> 50000
NCCc1c[nH]cn1	–	–	–	2100	25	37000	3500	> 100000	–	–	–	–
CC(C)(C)OC(=O)N[C@@H](Cc1cn(C(=O)OC(C)(C)C)cn1)C(=O)NCCCCCCNc1c2c(nc3ccccc13)CCCC2	14.5	10000	0.44	–	–	–	–	–	> 50000	> 50	> 50000	> 50000
CC(C)(C)OC(=O)N[C@@H](CCCCNC(=O)OCc1ccccc1)C(=O)NCCCCCNc1c2c(nc3ccccc13)CCCC2	299	–	0.34	–	–	–	–	> 50000	> 50000	> 50	> 50000	> 50000
CC(C)(C)OC(=O)N[C@@H](Cc1cn(C(=O)OC(C)(C)C)cn1)C(=O)NCCCNc1c2c(nc3ccccc13)CCCC2	157	15900	3.6	–	–	–	–	–	> 50000	> 50	> 50000	> 50000
COC(=O)[C@H](Cc1c[nH]cn1)NCCCCCNc1c2c(nc3ccccc13)CCCC2	143	175	4.4	311	3.65	211	2430	–	–	–	–	–
CC(C)(C)OC(=O)N[C@@H](Cc1c[nH]c2ccccc12)C(=O)NCCCCNc1c2c(nc3ccccc13)CCCC2	82.3	7650	0.21	2620	8.58	2630	8640	–	–	–	–	–
N[C@@H](Cc1c[nH]c2ccccc12)C(=O)NCCCCCNc1c2c(nc3ccccc13)CCCC2	37.8	119	1	630	1.72	105	936	–	–	–	–	–
COC(=O)[C@@H](N)Cc1ccc(OCCCCCNc2c3c(nc4ccccc24)CCCC3)cc1	22.1	372	0.048	552	16.8	803	1730	–	–	–	–	–
COC(=O)[C@H](Cc1ccc(OCCCCCNc2c3c(nc4ccccc24)CCCC3)cc1)NC(=O)OC(C)(C)C	65.4	–	> 15.3	–	–	–	–	> 50000	> 50000	> 50	> 50000	> 50000
c1ccc2c(NCCCCCNCCc3c[nH]cn3)c3c(nc2c1)CCCC3	60.2	290	2.4	439	1.28	439	541	–	–	–	–	–
CC(C)(C)OC(=O)N[C@@H](Cc1c[nH]c2ccccc12)C(=O)NCCCNc1c2c(nc3ccccc13)CCCC2	426	5180	0.5	1920	21.7	1920	–	–	–	–	–	> 50000
N[C@@H](Cc1c[nH]cn1)C(=O)NCCCNc1c2c(nc3ccccc13)CCCC2	119	376	5.8	581	0.619	281	1860	–	–	–	–	–
